Data reported in ChEMBL document CHEMBL1153463 (Bioorg Med Chem Lett, 2009).

How the values were obtained:
[1] = test system: Respiratory syncytial virus; assay: Antiviral activity against RSV assessed as inhibition of viral replication by cell based assay; format: functional, organism-based; conditions: human respiratory syncytial virus
[2] = Metabolic stability in human liver mocrosomes; conditions: liver microsomes
[3] = Permeability across human Caco-2 cells

Row | SMILES | EC50 [1] [nM] | half-life [2] [min] | Papp [3] [×10⁻⁶ cm/s]
1 | COCCCn1c(CN2C(=O)/C(=N/OC)c3ccccc32)nc2ccccc21 | 30 | 16 | 
2 | CC(C)(C)O/N=C1/C(=O)N(Cc2nc3ccccc3n2CCCCO)c2ccccc21 | 1130 |  | 
3 | CS(=O)(=O)CCCn1c(CN2C(=O)/C(=N/OCCF)c3ccncc32)nc2ccccc21 | 12.5 | > 100 | 1
4 | COCCCn1c(CN2C(=O)/C(=N/OCS(=O)(=O)O)c3ccccc32)nc2ccccc21 | 46 |  | 
5 | C=CCCO/N=C1/C(=O)N(Cc2nc3ccccc3n2CCCOC)c2ccccc21 | 260 |  | 
6 | C=CCCCO/N=C1/C(=O)N(Cc2nc3ccccc3n2CCCOC)c2ccccc21 | 192 |  | 
7 | CC(C)CCn1c(CN2C(=O)/C(=N/OCc3ccc(C(=O)N(C)C)cc3)c3ccccc32)nc2ccccc21 | 9 |  | 
8 | CS(=O)(=O)c1ccc(CO/N=C2/C(=O)N(Cc3nc4ccccc4n3CCCCO)c3ccccc32)cc1 | 12 | 13 | 15.2
9 | COCCCn1c(CN2C(=O)/C(=N/OC(C)C)c3ccccc32)nc2ccccc21 | 257 |  | 
10 | COCCCn1c(CN2C(=O)/C(=N/OC3CCOCC3)c3ccccc32)nc2ccccc21 | 206 |  | 
11 | COCCCn1c(CN2C(=O)/C(=N/OCC(N)=O)c3ccccc32)nc2ccccc21 | 154 | 21 | 1.5
12 | COCCCn1c(CN2C(=O)/C(=N/OCCCN3CCCCC3)c3ccccc32)nc2ccccc21 | 290 |  | 
13 | COCCCn1c(CN2C(=O)/C(=N/OCc3ccncc3)c3ccccc32)nc2ccccc21 | 242 | 0.6 | 21.4
14 | CO/N=C1/C(=O)N(Cc2nc3ccccc3n2CCCCF)c2cnccc21 | 106 | 26 | 12.8
15 | CC(=O)OCCCCn1c(CN2C(=O)/C(=N/OCc3ccc(S(C)(=O)=O)cc3)c3ccccc32)nc2ccccc21 | 5 |  | 
16 | COCCCn1c(CN2C(=O)/C(=N/OCC(O)CC#N)c3ccccc32)nc2ccccc21 (configuration not stated) | 65 |  | 
17 | CCO/N=C1/C(=O)N(Cc2nc3ccccc3n2CCCOC)c2ccccc21 | 59 |  | 
18 | N#CCCCn1c(CN2C(=O)/C(=N/OCC(N)=O)c3ccccc32)nc2ccccc21 | 45 |  | 3
19 | CCCO/N=C1/C(=O)N(Cc2nc3ccccc3n2CCCOC)c2ccccc21 | 147 |  | 
20 | C=CCO/N=C1/C(=O)N(Cc2nc3ccccc3n2CCCS(C)(=O)=O)c2cnccc21 | 12.4 |  | 
21 | COCCCn1c(CN2C(=O)/C(=[N+](/[O-])C3CCCCC3)c3ccccc32)nc2ccccc21 | 285 |  | 
22 | COCCCn1c(CN2C(=O)/C(=N/OC3CCCCC3)c3ccccc32)nc2ccccc21 | 652 |  | 
23 | CC(=O)OCCCCn1c(CN2C(=O)/C(=N/O)c3cccnc32)nc2ccccc21 | 49.7 | 1.3 | 1.2
24 | C=CCO/N=C1/C(=O)N(Cc2nc3ccccc3n2CCCOC)c2ccccc21 | 428 |  | 
25 | COCCCn1c(CN2C(=O)/C(=N/OCCCCOC(C)=O)c3ccccc32)nc2ccccc21 | 62 |  | 

Row | SMILES | EC50 [1] [nM] | half-life [2] [min] | Papp [3] [×10⁻⁶ cm/s]
26 | COCCCn1c(CN2C(=O)/C(=N/OCCN(C)C)c3ccccc32)nc2ccccc21 | 370 |  | 
27 | CO/N=C1/C(=O)N(Cc2nc3ccccc3n2CCCCO)c2cnccc21 | 30.9 | 84 | 9.8
28 | COCCCn1c(CN2C(=O)/C(=N/OCCCC#N)c3ccccc32)nc2ccccc21 | 79 |  | 
29 | CC(=O)OCCCCn1c(CN2C(=O)/C(=N/OCCF)c3cccnc32)nc2ccccc21 | 54.6 |  | 
30 | COCCCn1c(CN2C(=O)/C(=N/OCCN3CCCCC3)c3ccccc32)nc2ccccc21 | 682 |  | 
31 | COCCCn1c(CN2C(=O)/C(=N/OCc3ccccn3)c3ccccc32)nc2ccccc21 | 238 |  | 
32 | CC(C)CCn1c(CN2C(=O)/C(=N/Oc3ccccc3)c3ccccc32)nc2ccccc21 | 375 |  | 
33 | CC(C)CCn1c(CN2C(=O)/C(=N/OCc3ccc(C(=O)O)cc3)c3ccccc32)nc2ccccc21 | 16 |  | 
34 | CN(C)CCn1c(CN2C(=O)/C(=N/OCc3ccc(C(=O)O)cc3)c3ccccc32)nc2ccccc21 | 16.5 |  | 
35 | CCC(CC)/[N+]([O-])=C1\C(=O)N(Cc2nc3ccccc3n2CCCOC)c2ccccc21 | 898 |  | 
36 | COCCCn1c(CN2C(=O)/C(=N/OCC(=O)O)c3ccccc32)nc2ccccc21 | 295 |  | 
37 | COCCCn1c(CN2C(=O)/C(=N/OC(CC(O)O)C(O)O)c3ccccc32)nc2ccccc21 (configuration not stated) | 19 |  | 
38 | CO/N=C1/C(=O)N(Cc2nc3ccccc3n2CCCCOC(C)=O)c2ccccc21 | 30 | 1.5 | 
39 | COCCCn1c(CN2C(=O)/C(=N/OCC(F)(F)F)c3ccccc32)nc2ccccc21 | 2740 | 3.2 | 65.2
40 | O=C1/C(=N/OCCF)c2ccncc2N1Cc1nc2ccccc2n1CCCCF | 61.9 | 38 | 15.8
41 | COCCCn1c(CN2C(=O)/C(=N/OCC3CCC3)c3ccccc32)nc2ccccc21 | 246 |  | 
42 | COCCCn1c(CN2C(=O)/C(=N/OCc3ccc(C(=O)N(C)C)cc3)c3ccccc32)nc2ccccc21 | 30 |  | 23.7
43 | O=C1/C(=N/O)c2ccncc2N1Cc1nc2ccccc2n1CCCCF | 17.9 | 100 | 2.7
44 | COC(=O)c1ccc(CO/N=C2/C(=O)N(Cc3nc4ccccc4n3CCN(C)C)c3ccccc32)cc1 | 23 | 0.6 | 
45 | CC(C)CCn1c(CN2C(=O)/C(=N/Oc3ccc(Br)cc3)c3ccccc32)nc2ccccc21 | 705 |  | 
46 | C#CCCCO/N=C1/C(=O)N(Cc2nc3ccccc3n2CCCOC)c2ccccc21 | 64 |  | 
47 | CCCCCO/N=C1/C(=O)N(Cc2nc3ccccc3n2CCCOC)c2ccccc21 | 188 |  | 
48 | CO/N=C1/C(=O)N(Cc2nc3ccccc3n2CCCC#N)c2ncccc21 | 92.8 | 28 | 16
49 | COCCCn1c(CN2C(=O)/C(=[N+](/[O-])C(C)C)c3ccccc32)nc2ccccc21 | 230 |  | 
50 | COCCCn1c(CN2C(=O)/C(=N/OCC3CCCO3)c3ccccc32)nc2ccccc21 (configuration not stated) | 152 |  | 

Row | SMILES | EC50 [1] [nM] | half-life [2] [min] | Papp [3] [×10⁻⁶ cm/s]
51 | CS(=O)(=O)CCCn1c(CN2C(=O)/C(=N/OCc3ccc(S(C)(=O)=O)cc3)c3cnccc32)nc2ccccc21 | 10600 | 200 | 
52 | CO/N=C1/C(=O)N(Cc2nc3ccccc3n2CCCCO)c2ccccc21 | 10 |  | 
53 | COC(=O)c1ccc(CO/N=C2/C(=O)N(Cc3nc4ccccc4n3CCC(C)C)c3ccccc32)cc1 | 23 | 0.6 | 
54 | COCCCn1c(CN2C(=O)/C(=N/OCCF)c3ccccc32)nc2ccccc21 | 71 |  | 
55 | O=C1/C(=N/OCC(F)(F)F)c2cccnc2N1Cc1nc2ccccc2n1CCCCO | 79.8 | 65 | 15.4
56 | CO/N=C1/C(=O)N(Cc2nc3ccccc3n2CCC(C)C)c2ccccc21 | 87 |  | 
57 | N#CCCCn1c(CN2C(=O)/C(=N/O)c3cccnc32)nc2ccccc21 | 22.7 | 100 | 4.2
58 | COC(=O)c1ccc(CO/N=C2/C(=O)N(Cc3nc4ccccc4n3CCNS(C)(=O)=O)c3ccccc32)cc1 | 51 |  | 
59 | COCCCn1c(CN2C(=O)/C(=N/OCC3CC3)c3ccccc32)nc2ccccc21 | 96 |  | 
60 | COCCCn1c(CN2C(=O)/C(=N/OCCC3CCCCC3)c3ccccc32)nc2ccccc21 | 384 |  | 
61 | CCN(CC)C(=O)CO/N=C1/C(=O)N(Cc2nc3ccccc3n2CCCOC)c2ccccc21 | 26 |  | 
62 | CC(C)CCn1c(CN2C(=O)/C(=N/OCc3ccccc3)c3ccccc32)nc2ccccc21 | 202 |  | 
63 | N#CCCCn1c(CN2C(=O)/C(=N/OCCF)c3cccnc32)nc2ccccc21 | 57.3 | 55 | 15.5
64 | COCCCn1c(CN2C(=O)/C(=N/OCc3cccnc3)c3ccccc32)nc2ccccc21 | 141 |  | 
65 | COCCCn1c(CN2C(=O)/C(=N/OCc3ccc(C(=O)OC)cc3)c3ccccc32)nc2ccccc21 | 50 |  | 
66 | CS(=O)(=O)c1ccc(CO/N=C2/C(=O)N(Cc3nc4ccccc4n3CCCC#N)c3ccncc32)cc1 | 10200 | 29 | 
67 | CO/N=C1/C(=O)N(Cc2nc3ccccc3n2CCCCO)c2ncccc21 | 31.2 | 31 | 14.1
68 | COCCCn1c(CN2C(=O)/C(=N/OCCCN(C)C)c3ccccc32)nc2ccccc21 | 240 |  | 
69 | CC(C)CCn1c(CN2C(=O)/C(=N/O)c3ccccc32)nc2ccccc21 | 10 |  | 
70 | N#CCCCn1c(CN2C(=O)/C(=N/OCC(F)(F)F)c3ccccc32)nc2ccccc21 | 66 | 18 | 
71 | CCCCO/N=C1/C(=O)N(Cc2nc3ccccc3n2CCCOC)c2ccccc21 | 261 |  | 
72 | COCCCn1c(CN2C(=O)/C(=N/OCCCF)c3ccccc32)nc2ccccc21 | 125 |  | 
73 | CCC(CC)O/N=C1/C(=O)N(Cc2nc3ccccc3n2CCCOC)c2ccccc21 | 935 |  | 
